The values below come from PubChem BioAssay (NCI).

“And” between values parts separate entries of the source, which are not always exact repeats. Equal entries are not always repeated.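 Briefly, cells in 96-well plates were exposed to five compound concentrations for 48 h, and endpoints were estimated by linear interpolation. The concentration for 50% growth inhibition is given as GI50. TGI denotes the concentration required for complete inhibition of growth.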

The assay concerns MDA-MB-468 breast. As to the kind of experiment: growth of human tumour cells (NCI), 48 h.
For `Cc1nn(C)c2ncnc(N/N=C/c3cccc(O)c3O)c12`, the GI50 was 2170 nM and the TGI stood at 6.53 µM.
`COc1ccc(C2NN=C3c4ccccc4CCC32)cc1` (stereo unspecified) returned a TGI of 0.0416 µM.
With `NC1=NC(SCc2ccccc2CCl)c2ncn(Cc3ccccc3CCl)c2N1` (stereo unspecified), the GI50 is 1710 nM and the TGI was found to be 3.72 µM.
`Nc1c(C(=O)c2cccc(C(O)CO)c2)cnn1-c1ccc(F)cc1` (stereo unspecified): the GI50 was greater than 25000 nM and the TGI is greater than 25 µM.
For the compound `COC(=O)CCC(=O)NC1=C(Nc2ccccc2)C(=O)c2ccccc2C1=O`, the GI50 was 3040 nM and the TGI was found to be 10.5 µM.
For `COc1ccc(Nc2ncnc3ccc(-c4cncc(NS(C)(=O)=O)c4)cc23)cc1Cl` the same measures were 785 nM and 3.1 µM.
In the case of `CN1CCN(CCCOc2ccc3nc(Nc4ccc(F)c(F)c4)ccc3c2)CC1`, the GI50 was 1370 nM and the TGI stood at 4.36 µM.
For `O=c1cc(-c2ccccc2)[nH]c2c1CCCC2` the same measures were 1570 nM and 4.99 µM.
`COc1ccc2nc(C)cc(Sc3nc4ccccc4s3)c2c1`: the GI50 is 2200 nM and the TGI was found to be 11.4 µM.
`Nc1nc(Cl)nc2c1ncn2C1OC(CO)C(O)C1F` (stereo unspecified): the GI50 is 285 nM and the TGI turned out to be 0.891 µM.
Regarding `CN1CCN(Cc2ccc(NC(=O)c3cncc(C#Cc4cnc5ccc(NC6CCOCC6)nn45)c3)cc2C(F)(F)F)CC1`, the GI50 is 33.8 nM and 19.6 nM; the TGI is 0.222 µM and 0.0672 µM.
On to `O=C1C(N2CCN(CCOCCO)CC2)=C(Cl)C(=O)c2ncccc21`, for which the GI50 was 19300 nM and the TGI was 39.3 µM.
Turning to `CCN1CCN(c2cc(C(=O)Nc3cccc(Nc4ccc5c(OC)cccc5n4)c3)cc(C(F)(F)F)c2)CC1`, the GI50 was 749 nM and the TGI was 4.05 µM.
`O=C1OCC2=C1C(c1cccc(C(F)(F)F)c1)c1cc3c(cc1N2CCO)OCCO3` (stereo unspecified): the GI50 was 1410 nM and the TGI was greater than 33.3 µM.
Regarding `CC(C)C[C@H](NC(=O)Cn1cccc(CNC(=O)c2ccccc2)c1=O)B(O)O`, the GI50 was 139 nM and the TGI worked out at 0.716 µM.
For `Cc1c(Nc2nccc3cc(CN4CC[C@@H](O)C4)cnc23)cccc1-c1cccc(-c2nc3cc(CN4CC[C@@H](C(=O)O)C4)cc(C#N)c3o2)c1C` the same measures were 11200 nM and 35.2 µM.
On to `O=C1NC(=O)C(c2cccc(Cl)c2)=C1Nc1ccc(Cl)c(C(=O)O)c1`, for which the GI50 is greater than 25000 nM and the TGI was greater than 25 µM.
Take `Cc1cc(=O)[nH]c(N/N=C/c2ccccc2O)n1`: the GI50 was 3030 nM and the TGI amounted to 46.9 µM.
For `CN(C)CCN1C(=O)c2cccc3c(/C=C/CN4C(=O)c5cccc6cccc(c56)C4=O)ccc(c23)C1=O` the same measures were 14000 nM and 34.3 µM.
For `CN1CCN(Cc2ccc(NC(=O)c3[nH]ncc3Nc3ncnc4[nH]ccc34)cc2)CC1`, the GI50 is 247 nM and the TGI is 0.562 µM.
The matching figures for `COc1cc2nc(N3CCC[C@H](NC4=CC(=O)c5ccccc5C4=O)C3)nc(N)c2cc1OC`: 1790 nM and 3.53 µM.
For `CC(=O)c1c[nH]c2ccc(-c3ccnc(Nc4ccc(NC(=O)C5CCCC5)c(CN5CCOCC5)c4)n3)cc12` the same measures were 21.9 nM and 0.0774 µM.
The matching figures for `COC1=C(OC)C(=O)C(C/C=C(\C)CC/C=C(\C)CC/C=C(\C)CC/C=C(\C)CC/C=C(\C)CC/C=C(\C)CC/C=C(\C)CC/C=C(\C)CC/C=C(\C)CCC=C(C)C)=C(C)C1=O`: greater than 100000 nM and greater than 100 µM.
`O=C(Nc1ccc(-n2cc(-c3ccncc3)c(-c3ccc(O)c(Cl)c3)n2)cc1)c1ccc(Cl)c(C(F)(F)F)c1`: the GI50 is 2590 nM and the TGI turned out to be 48.4 µM.
For `CCN(CC)CCCNCc1cc(-c2ccccc2)nc2cc(Cl)ccc12` the same measures were 1930 nM and 3.92 µM.
For `COc1cc(F)c(F)cc1C(=O)c1cnc(NC2CCN(S(C)(=O)=O)CC2)nc1N` the same measures were 3650 nM and 10.8 µM.
For `CC1=C(CO)C(=O)O[C@@H]([C@@H](C)[C@H]2CC[C@H]3[C@@H]4C[C@H]5O[C@]56[C@@H](O)C=CC(=O)[C@]6(C)[C@H]4CC[C@]23C)C1` the same measures were 278 nM and 1.21 µM.
With `O=C1NC(=O)C(=Cc2cn(Cc3ccccc3)c3ccccc23)C(=O)N1`, the GI50 is 142 nM and the TGI was found to be 0.39 µM.
The matching figures for `O=C(O)COc1ccc(OCC(=O)O)cc1`: 326 nM and 2.09 µM.
The matching figures for `CC(C)[P+](c1ccccc1)(c1ccccc1)c1ccccc1`: 1120 nM and 10.7 µM.
For `CN1CCN(C(=O)c2ccc(NC(=O)Nc3ccc(-c4nc(N5CCOCC5)c5cccn5n4)cc3)cc2)CC1` the same measures were 21 nM and 0.077 µM.
